From patent publication US20260176284A1, “Compounds with Anti-KRAS Mutated Tumor Activity” (Trasveda Ltd., priority 2022, published 2026) come the findings set out here.

In the assay the test system is KRAS G12D mutated AGS human gastric adenocarcinoma cells. As to the kind of experiment: Proliferation inhibition of KRAS G12D mutant AGS cells, another experiment with similar protocol (includes MRTX1133). Type of assay: cell-based. The settings on record: Homo sapiens. The procedure: In another experiment, using a protocol similar to the one described above, the inhibitory activity of some representative compounds of the present invention against KRAS G12D mutated AGS human gastric adenocarcinoma cells was determined.
The synthesis of compound MRTX1133 was performed according to the method described in J. Med. Chem. 2022, 65, 4, 3123-3133.
In the case of `C#Cc1c(F)ccc2cc(O)cc(-c3nc(OC)c4c(N5C[C@H]6CC[C@@H](C5)N6)nc(OC[C@]5(C)CN(C)CC[C@@H]5F)nc4c3F)c12` [Example 262, 4-(4-((1R,5S)-3,8-diazabicyclo[3.2.1]octan-3-yl)-8-fluoro-2-(((3S,4S)-4-fluoro-1,3-dimethylpiperidin-3-yl)methoxy)-5-methoxypyrido[4,3-d]pyrimidin-7-yl)-5-ethynyl-6-fluoronaphthalen-2-ol], the IC50 worked out at 15 nM.

The molecule `CN1CC/C(=C\F)[C@](C)(COc2nc(N3CC4CCC(C3)N4)c3cc(F)c(-c4cccc5sc(N)c(C#N)c45)c(F)c3n2)C1` [Example 194] returned an IC50 of 97 nM.

As for `C#Cc1c(F)ccc2cc(O)cc(-c3c(F)cc4c(N5CC6CCC(C5)N6)nc(OC[C@]5(C)CN(CC)CC[C@H]5F)nc4c3F)c12` (atropisomer, axis not shown; (Ra)) [Example 50-3, (Ra)-4-(4-((1R,5S)-3,8-diazabicyclo[3.2.1]octan-3-yl)-2-(((35,4R)-1-ethyl-4-fluoro-3-methylpiperi-din-3-yl)methoxy)-6,8-difluoroquinazolin-7-yl)-5-ethynyl-6-fluoronaph-thalen-2-ol], the IC50 was 7 nM.

Regarding `C#Cc1c(F)ccc2cc(O)cc(-c3c(F)cc4c(N5C[C@H]6CC[C@@H](C5)N6)nc(OC[C@]5(C)CN(CC)CCC56CC6)nc4c3F)c12` [Example 95, 4-(4-((1R,5S)-3,8-diazabicyclo[3.2.1]octan-3-yl)-2-(((S)-6-ethyl-4-methyl-6-azaspiro[2.5]octan-4-yl)methoxy)-6,8-difluoroquinazolin-7-yl)-5-ethynyl-6-fluoronaphthalen-2-ol], the IC50 stood at 8 nM.

`C#Cc1c(F)ccc2cc(O)cc(-c3ncc4c(N5CC6CCC(C5)N6)nc(OC[C@]5(C)CN(C)CC[C@H]5F)nc4c3F)c12` [Example 67-3] registered an IC50 of 17 nM. Against the preceding molecule, the IC50 is about 2.1-fold higher.

In turn, `C#Cc1c(F)ccc2cc(O)cc(-c3ncc4c(N5CC6CCC(C5)N6)nc(OC[C@]5(C)CN(C)CC[C@@H]5CF)nc4c3F)c12` [Example 71-2] gave an IC50 of 8 nM. Compared with the last molecule, the IC50 is about 2.1-fold lower.

Turning to `C#Cc1c(F)ccc2cc(O)cc(-c3c(F)cc4c(N5CC6CCC(C5)N6)nc(OC[C@]5(C)CN(CC)CCC5=C)nc4c3F)c12` (atropisomer, axis not shown; (Ra)) [Example 63, (Ra)-4-(4-((1R,5S)-3,8-diazabicyclo[3.2.1]octan-3-yl)-2-(((S)-1-ethyl-3-methyl-4-methylenepiperi-din-3-yl)methoxy)-6,8-difluoroquinazolin-7-yl)-5-ethynyl-6-fluoronaph-thalen-2-ol], the midpoint of inhibition, the IC50, lay at 11 nM. The IC50 values of the last two molecules are within 1.5-fold of each other.

On to `CN1CC[C@H](C(F)F)[C@](C)(COc2nc(N3C[C@H]4CC[C@@H](C3)N4)c3cc(C#N)c(-c4cccc5sc(N)c(C#N)c45)c(F)c3n2)C1` [Example 328, 7-(2-amino-3-cyanobenzo[b]thiophen-4-yl)-4-((1R,5S)-3,8-diazabicyclo[3.2.1]octan-3-yl)-2-(((3S,4S)-4-(difluoromethyl)-1,3-dimethylpiperidin-3-yl)methoxy)-8-fluoroquinazoline-6-carbonitrile], for which the IC50 came out at 45 nM.

As for `CN1CC[C@H](C(F)F)[C@](C)(COc2nc(N3C[C@H]4CC[C@@H](C3)N4)c3cc(F)c(-c4cccc5sc(N)c(C#N)c45)c(F)c3n2)C1` [Example 190, 4-(4-((1R,5S)-3,8-diazabicyclo[3.2.1]octan-3-yl)-2-(((3S,4S)-4-(difluoromethyl)-1,3-dimethylpiperidin-3-yl)methoxy)-6,8-difluoroquinazolin-7-yl)-2-aminobenzo[b]thiophene-3-nitrile], it took 47 nM to reach half-maximal inhibition (IC50).

Regarding `C#Cc1c(F)ccc2cc(O)cc(-c3nc(OC)c4c(N5C[C@H]6CC[C@@H](C5)N6)nc(OC[C@]5(C)CN(C)CC[C@H]5F)nc4c3F)c12` [Example 263, 4-(4-((1R,5S)-3,8-diazabicyclo[3.2.1]octan-3-yl)-8-fluoro-2-(((3S,4R)-4-fluoro-1,3-dimethylpiperidin-3-yl)methoxy)-5-methoxypyrido[4,3-d]pyrimidin-7-yl)-5-ethynyl-6-fluoronaphthalen-2-ol], the IC50 is 12 nM.
